# Paper PMC7093416, “Selective USP7 inhibition elicits cancer cell killing through a p53-dependent mechanism” (Scientific Reports, 2020)
# System: panel of 484 cancer cell lines
# Assay: PRISM cancer cell line profiling, 5 days
# Format: cell-based
# Set-up: AUC: unit not given beside the values
# Method: Cancer cell line profiling was performed using the Broad’s PRISM platform. Cell treatment and data analysis were performed as described in Yu et al[42]. Raw Luminex signal was converted to AUC values for each cell line as described. The resulting AUC profile for each compound was modeled against DepMap using the limma package in R[71]. Because hotspot mutation analysis was performed against DepMap, TP53 annotations in Fig. 6c,d are directly from DepMap.
structure (smiles),measurement,setting,value
CN1CCN(CCC(=O)Nc2ccc3c(=O)n(CC4(O)CCN(C(=O)[C@@H](CCCNC(=O)c5ccc6c(Cl)c7c(nc6c5)CCCC7)Cc5ccccc5)CC4)cnc3c2)CC1 [XL177A],AUC,MG63_BONE,1.147
same,AUC,MHHES1_BONE,0.9854
same,AUC,MIAPACA2_PANCREAS,0.7815
same,AUC,MKN1_STOMACH,1.271
same,AUC,MKN7_STOMACH,0.8494
same,AUC,MKN45_STOMACH,0.5723
same,AUC,MKN74_STOMACH,0.9306
same,AUC,MON_SOFT_TISSUE,0.2802
same,AUC,MPP89_PLEURA,1.207
same,AUC,MSTO211H_PLEURA,0.9069
same,AUC,NB1_AUTONOMIC_GANGLIA,0.8293
same,AUC,NCIH23_LUNG,0.7147
same,AUC,NCIH28_PLEURA,1.117
same,AUC,NCIH226_LUNG,0.8849
same,AUC,NCIH292_LUNG,1.012
same,AUC,NCIH322_LUNG,0.9977
same,AUC,NCIH358_LUNG,0.842
same,AUC,NCIH446_LUNG,1.125
same,AUC,NCIH460_LUNG,1.082
same,AUC,NCIH520_LUNG,1.357
same,AUC,NCIH522_LUNG,0.9146
same,AUC,NCIH596_LUNG,0.8559
same,AUC,NCIH650_LUNG,0.8175
same,AUC,NCIH661_LUNG,1.081
same,AUC,NCIH727_LUNG,1.196
same,AUC,NCIH747_LARGE_INTESTINE,0.9621
same,AUC,NCIH838_LUNG,0.9473
same,AUC,NCIH841_LUNG,0.967
same,AUC,NCIH1048_LUNG,1.077
same,AUC,NCIH1299_LUNG,1.101
same,AUC,NCIH1339_LUNG,0.9923
same,AUC,NCIH1355_LUNG,0.948
same,AUC,NCIH1373_LUNG,0.8577
same,AUC,NCIH1435_LUNG,1.156
same,AUC,NCIH1437_LUNG,0.9262
same,AUC,NCIH1563_LUNG,0.7202
same,AUC,NCIH1568_LUNG,0.8953
same,AUC,NCIH1573_LUNG,1.235
same,AUC,NCIH1581_LUNG,0.9829
same,AUC,NCIH1623_LUNG,0.9673
same,AUC,NCIH1648_LUNG,0.9409
same,AUC,NCIH1650_LUNG,0.8271
same,AUC,NCIH1651_LUNG,1.042
same,AUC,NCIH1693_LUNG,0.9884
same,AUC,NCIH1703_LUNG,1.041
same,AUC,NCIH1792_LUNG,1.0161
same,AUC,NCIH1793_LUNG,1.096
same,AUC,NCIH1838_LUNG,0.9778
same,AUC,NCIH1915_LUNG,0.9037
same,AUC,NCIH1944_LUNG,0.9736
same,AUC,NCIH1975_LUNG,0.923
same,AUC,NCIH2009_LUNG,0.7912
same,AUC,NCIH2023_LUNG,1.0442
same,AUC,NCIH2030_LUNG,1.09
same,AUC,NCIH2052_PLEURA,0.7196
same,AUC,NCIH2077_LUNG,1.06
same,AUC,NCIH2087_LUNG,0.9147
same,AUC,NCIH2110_LUNG,1.049
same,AUC,NCIH2122_LUNG,0.751
same,AUC,NCIH2126_LUNG,0.9474
same,AUC,NCIH2170_LUNG,1.032
same,AUC,NCIH2172_LUNG,1.068
same,AUC,NCIH2228_LUNG,0.9446
same,AUC,NCIH2347_LUNG,0.9414
same,AUC,NCIH2444_LUNG,0.981
same,AUC,NCIH2452_PLEURA,1.231
same,AUC,NCIN87_STOMACH,1.289
same,AUC,NUGC3_STOMACH,0.9146
same,AUC,NUGC4_STOMACH,0.8113
same,AUC,OAW42_OVARY,0.9061
same,AUC,OC314_OVARY,1.051
same,AUC,OC316_OVARY,1.076
same,AUC,OE19_OESOPHAGUS,1.108
same,AUC,OE21_OESOPHAGUS,0.9739
same,AUC,OE33_OESOPHAGUS,1.005
same,AUC,ONCODG1_OVARY,0.9121
same,AUC,ONS76_CENTRAL_NERVOUS_SYSTEM,0.7482
same,AUC,OSRC2_KIDNEY,0.9599
same,AUC,OUMS23_LARGE_INTESTINE,0.9942
same,AUC,OV56_OVARY,0.9082
same,AUC,OVCAR8_OVARY,1.07
same,AUC,OVISE_OVARY,0.8469
same,AUC,OVK18_OVARY,0.8349
same,AUC,OVSAHO_OVARY,0.9469
same,AUC,OVTOKO_OVARY,1.103
same,AUC,PANC1_PANCREAS,0.8692
same,AUC,PANC0203_PANCREAS,0.8971
same,AUC,PANC0327_PANCREAS,1.196
same,AUC,PANC0403_PANCREAS,1
same,AUC,PANC0813_PANCREAS,0.9365
same,AUC,PANC1005_PANCREAS,1.142
same,AUC,PATU8902_PANCREAS,1.125
same,AUC,PATU8988S_PANCREAS,1.237
same,AUC,PATU8988T_PANCREAS,0.9888
same,AUC,PC3_PROSTATE,0.9272
same,AUC,PC14_LUNG,0.8983
same,AUC,PECAPJ15_UPPER_AERODIGESTIVE_TRACT,0.8461
same,AUC,PECAPJ41CLONED2_UPPER_AERODIGESTIVE_TRACT,0.7551
same,AUC,PECAPJ49_UPPER_AERODIGESTIVE_TRACT,0.693
same,AUC,PK1_PANCREAS,1.009
same,AUC,PK45H_PANCREAS,1.081
same,AUC,PK59_PANCREAS,1.041
same,AUC,PLCPRF5_LIVER,1.069
same,AUC,PSN1_PANCREAS,0.9727
same,AUC,QGP1_PANCREAS,1.095
same,AUC,RCC10RGB_KIDNEY,1.14
same,AUC,RCM1_LARGE_INTESTINE,1.19
same,AUC,RD_SOFT_TISSUE,0.8902
same,AUC,RERFLCAD1_LUNG,1.191
same,AUC,RERFLCAD2_LUNG,1.139
same,AUC,RERFLCAI_LUNG,0.8829
same,AUC,RERFLCKJ_LUNG,0.8002
same,AUC,RERFLCMS_LUNG,1.045
same,AUC,RH30_SOFT_TISSUE,0.9309
same,AUC,RKN_SOFT_TISSUE,0.8534
same,AUC,RKO_LARGE_INTESTINE,0.7552
same,AUC,RL952_ENDOMETRIUM,0.9781
same,AUC,RMGI_OVARY,0.9543
same,AUC,RMUGS_OVARY,0.8888
same,AUC,RT4_URINARY_TRACT,1.356
same,AUC,RT112_URINARY_TRACT,1.227
